In US5985894A, “N-substituted quinolines” (Hoechst Marion Roussel, priority 1991, dated 1999):

Key:
[1] = test system: angiotensin II on the isolated portal vein; assay: Antagonistic activity of angiotensin II on the isolated portal vein; assay type: cell-based, male Wistar rats; conditions: isolated rat portal vein, angiotensin II 3.10^-8 M, compound 15 minutes before; read-out: IC50 (50% inhibition of the response to angiotensin)
Protocol: The portal vein was removed from male Wistar rats weighing about 350 g (IFFA Credo France) after cervical dislocation, and put rapidly into a physiological solution (see below) at ambient temperature. A ring of about 1 mm was mounted in a bath with an isolated element containing 20 ml of the following physiological solution (composition in mM: NaCl 118.3-KCl 4.7-MgSO4 1.2-KH2 PO4 1.2-NaHCO3 25-glucose 11.1-CaCl2 2.5). The medium was maintained at 37° C. and oxygenated with a mixture of O2 95%, CO2 5%. The initial pressure imposed was 1 g and the rings were left at rest for 60 to 90 minutes. To avoid spontaneous contractions, verapamil was added to the incubation bath (1.10^-6 M). At the end of the rest period, angiotensin II (Ciba hypertensis) 3.10^-8 M were added to the incubation bath and left in contact with the preparation for one minute. This operation was repeated every 30 minutes with the tissue being washed 3 or 4 times between two stimulations with angiotensin. The compound to be studied was introduced into the bath 15 minutes before a new stimulation with angiotensin. As increasing concentrations of the molecule were used, an IC50 (concentration that produced a 50% inhibition of the response to angiotensin) was calculated, expressed in nanomoles.

[2] = test system: angiotensin II; assay: Test for antagonistic activity of angiotensin II on a demedullated rat; assay type: in vivo, Male Sprague-Dawley rats; conditions: iv, 5 min, pressure effect of angiotensin II 0.75 micrograms/kg, compound injected (jugular vein) 5 minutes before, read-out: 50% inhibiting dose
Protocol: 3) Test for Antagonistic Activity of Angiotensin II on a Demedullated Rat
Male Sprague-Dawley rats weighing 250 to 350 g were anaesthetized by an intraperitoneal injection of sodium pentobarbital (60 mg/kg). The diastolic arterial pressure was recorded using a heparinated catheter (PE50) introduced into the left carotid of the animal, and connected to a pressure calculator (Gould, Pressure Processor) by a Gould pressure sensor. A catheter was introduced into the right jugular vein of the animal for the injection of the molecules to be studied. The animal was placed under assisted respiration and a bilateral section of the pneumogastric nerves was carried out. The rat was then demedullated. After a sufficient period of stabilization, the study of the antagonism of the compounds vis-a-vis angiotensin II (Ciba Hypertensin) was carried out in the following manner.
1--Three consecutive injections of angiotensin II (0.75 micrograms/kg) spaced out over 15 minutes allowed a reproducible and stable pressure response to be obtained.
2--While keeping a time period of 15 minutes for the administration of angiotensin II, the molecules to be studied were injected 5 minutes before angiotensin II.
The pressure effects of angiotensin II in the presence of the antagonist were expressed as a percentage of the pressure effects of angiotensin II administered on its own. The 50% inhibiting dose of the effect studied was determined. Each animal was considered as its own control and the results are in the following Table

[3] = biological target: T1, Angiotensin II Receptor (Rattus norvegicus, UniProt P25095); assay: Test on the Angiotensin II Receptor (displacement of 125I angiotensin II, rat liver membranes); assay type: binding; conditions: pH 7.4, 25° C., 150 minutes
T1 construct: A fresh membrane preparation obtained from the liver of a rat was used; from tissue; host or cells: rat liver, fresh membrane preparation
T1 sequence (P25095 1-359): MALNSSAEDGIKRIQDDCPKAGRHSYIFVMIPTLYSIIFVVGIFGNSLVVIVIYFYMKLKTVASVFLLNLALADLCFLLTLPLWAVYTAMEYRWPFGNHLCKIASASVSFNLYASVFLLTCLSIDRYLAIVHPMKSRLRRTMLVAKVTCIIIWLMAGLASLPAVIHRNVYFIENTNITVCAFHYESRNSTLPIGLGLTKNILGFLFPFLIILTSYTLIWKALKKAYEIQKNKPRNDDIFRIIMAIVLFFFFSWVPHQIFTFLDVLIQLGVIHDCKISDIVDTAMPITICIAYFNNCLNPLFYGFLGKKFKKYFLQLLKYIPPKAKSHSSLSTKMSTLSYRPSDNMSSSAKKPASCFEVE
Protocol: 1) Test on the Angiotensin II Receptor
A fresh membrane preparation obtained from the liver of a rat was used and the tissue was ground up in a polytron in a Tris 50 mM pH 7.4 buffer. After being ground up, the tissue was centrifuged 3 times at 30,000 g for 15 minutes with intermediate taking up of the deposits in the Tris pH 7.4 buffer. The last deposits were suspended in a pH 7.4 incubation buffer (Tris 20 mM, NaCl 135 mM, KCl 10 mM, glucose 5 mM, MgCl2 10 mM, phenyl methyl sulfonyl fluoride 0.3 mM, bacitracine 0.1 mM (0.2% bovine albumin serum). 2 ml aliquoted fractions were divided into hemolysis tubes and ^125 I angiotensin II (25,000 DPM/tube) and the product to be studied were added. The product has first tested at 3×10^-5 M in triplicate. When the test product displaced more than 50% of the radioactivity linked specifically to the receptor, it was tested again according to a range of 7 concentrations to determine the concentration that inhibited the radioactivity linked specifically to the receptor by 50%. In this way, the 50% inhibiting concentration was determined.
The non-specific bond was determined by the addition of the product of Example 94 of the European Patent No. 0,253,310 at 10^-5 M (in triplicate). The deposit was incubated at 25° C. for 150 minutes, put back in a water bath at 0° C. for 5 minutes, filtered under vacuum, rinsed with Tris pH 7.4 buffer and the radioactivity was counted in the presence of scintillating Triton. The results were expressed directly as a 50% inhibiting concentration (IC50), that is to say as a concentration of product studied, expressed in nM, necessary to displace 50% of the specific radioactivity fixed on the receptor studied.

[4] = Passive avoidance test (scopolamine amnesia); assay type: in vivo, Male mice (CD1 Charles River); conditions: s.c., 24 hours after treatment

IC50 [1] [nM] | IC50 [3] [nM] | Compound | ED50 [2] [mg/kg] | PERCENTAGE OF INCREASE IN THE LATENCY TIME RELATIVE TO THE CONTROLS ([4]; dose 0.1 μg/kg) [%] | PERCENTAGE OF INCREASE IN THE LATENCY TIME RELATIVE TO THE CONTROLS ([4]; dose 0.25 μg/kg) [%] | PERCENTAGE OF INCREASE IN THE LATENCY TIME RELATIVE TO THE CONTROLS ([4]; dose 1 μg/kg) [%] | PERCENTAGE OF INCREASE IN THE LATENCY TIME RELATIVE TO THE CONTROLS ([4]; dose 2.5 μg/kg) [%] | PERCENTAGE OF INCREASE IN THE LATENCY TIME RELATIVE TO THE CONTROLS ([4]; dose 10 μg/kg) [%] | PERCENTAGE OF INCREASE IN THE LATENCY TIME RELATIVE TO THE CONTROLS ([4]; dose 25 μg/kg) [%] | PERCENTAGE OF INCREASE IN THE LATENCY TIME RELATIVE TO THE CONTROLS ([4]; dose 100 μg/kg) [%] | PERCENTAGE OF INCREASE IN THE LATENCY TIME RELATIVE TO THE CONTROLS ([4]; dose 250 μg/kg) [%] | PERCENTAGE OF INCREASE IN THE LATENCY TIME RELATIVE TO THE CONTROLS ([4]; dose 1000 μg/kg) [%]
49 | – | CCCCc1cn(Cc2ccc(-c3ccccc3C(=O)O)cc2)c2cc(CO)ccc2c1=O [Example 12] | 3.76 | – | – | – | – | – | – | – | – | –
96.5 | 180 | CCCCc1cn(Cc2ccc(-c3ccccc3C(=O)O)cc2)c2ccccc2c1=O [Example 4, 4'-[(3-butyl-1,4-dihydro-4-oxo-1-quinolinyl)-methyl](1,1'-biphenyl)-2-carboxylic acid] | 7.55 | – | – | – | – | – | – | – | – | –
– | – | CCCCc1cn(Cc2ccc(-c3ccccc3C(=O)O)cc2)c2cc(CC(=O)O)ccc2c1=O [Example 50] | 0.61 | 20 | 31 | 84 | 93 | 190 | 225 | 149 | – | –
– | 8.7 | CCCCc1cn(Cc2ccc(-c3ccccc3-c3nn[nH]n3)cc2)c2cc(C(=O)N3CCCC3)ccc2c1=O [Example 52] | 0.23 | – | – | – | – | – | – | – | – | –
66 | 400 | CCCCc1cn(Cc2ccc(-c3ccccc3C(=O)O)cc2)c2ccccc2c1=S [Example 6] | 6.65 | – | – | – | – | – | – | – | – | –
– | – | CCCCc1cn(Cc2ccc(-c3ccccc3C(=O)O)cc2)c2ccc(C)cc2c1=O [Example 58] | – | 3 | – | 29 | – | 112 | 110 | 129 | – | –
31 | 92 | CCCCc1cn(Cc2ccc(-c3ccccc3C(=O)O)cc2)c2cc(C(=O)O)ccc2c1=O [Example 10, 3-butyl-1-[[2'-carboxy-(1,1'-biphenyl)-4-yl]-methyl]-1,4-dihydro-4-oxo-7-quinoline carboxylic acid] | 1.27 | – | – | – | – | – | – | – | – | –
– | – | CCCCc1cn(Cc2ccccc2CC(=O)O)c2ccccc2c1=O [Example 56] | – | – | – | – | – | 24 | 49 | 98 | 105 | 122
– | 74 | CCCCc1cn(Cc2ccc(-c3ccccc3C(=O)O)cc2)c2c(Br)cccc2c1=O [Example 18, 4'-[(3-butyl-1,4-dihydro-8-bromo-4-oxo-1-quinolinyl)-methyl](1,1'-biphenyl)2-carboxylic acid] | 3.9 | – | – | – | – | – | – | – | – | –
– | – | CCCCc1cn(Cc2ccc(-c3ccccc3C(=O)O)cc2)c2cc(CCC(=O)O)ccc2c1=O [Example 38] | – | 1 | – | 57 | – | 118 | 132 | 131 | 101 | 158
31.7 | 79 | CCCCc1cn(Cc2ccc(-c3ccccc3C(=O)O)cc2)c2cc(C(=O)N3CCCC3)ccc2c1=O [Example 16] | 1.2 | – | – | – | – | – | – | – | – | –

Compound | IC50 [1] [nM] | IC50 [3] [nM] | ED50 [2] [mg/kg] | PERCENTAGE OF INCREASE IN THE LATENCY TIME RELATIVE TO THE CONTROLS ([4]; dose 0.1 μg/kg) [%] | PERCENTAGE OF INCREASE IN THE LATENCY TIME RELATIVE TO THE CONTROLS ([4]; dose 0.25 μg/kg) [%] | PERCENTAGE OF INCREASE IN THE LATENCY TIME RELATIVE TO THE CONTROLS ([4]; dose 1 μg/kg) [%] | PERCENTAGE OF INCREASE IN THE LATENCY TIME RELATIVE TO THE CONTROLS ([4]; dose 2.5 μg/kg) [%] | PERCENTAGE OF INCREASE IN THE LATENCY TIME RELATIVE TO THE CONTROLS ([4]; dose 10 μg/kg) [%] | PERCENTAGE OF INCREASE IN THE LATENCY TIME RELATIVE TO THE CONTROLS ([4]; dose 25 μg/kg) [%] | PERCENTAGE OF INCREASE IN THE LATENCY TIME RELATIVE TO THE CONTROLS ([4]; dose 100 μg/kg) [%] | PERCENTAGE OF INCREASE IN THE LATENCY TIME RELATIVE TO THE CONTROLS ([4]; dose 250 μg/kg) [%] | PERCENTAGE OF INCREASE IN THE LATENCY TIME RELATIVE TO THE CONTROLS ([4]; dose 1000 μg/kg) [%]
CCCCc1cn(Cc2ccc(-c3ccccc3C(=O)O)cc2)c2c(C(=O)O)cccc2c1=O [Example 30] | – | 54 | 0.21 | – | – | 23 | – | 37 | 65 | 91 | 144 | 126
CCCCc1cn(Cc2ccc(-c3ccccc3C(=O)O)cc2)c2c(c1=O)CCCC2 [Example 22, 4'-[(3-butyl-1,4,5,6,7,8-hexahydro-4-oxo-1-quinolinyl)-methyl](1,1'-biphenyl)-2-carboxylic acid] | – | 90 | 1 | – | – | – | – | 8 | 26 | 66 | 128 | 127
